According to patent US20040260272A1, “Method and system for intravesicular delivery of therapeutic agents” (priority 2002, published 2004):
One block for each molecule: values may come before it.

Key:
[1] = In vitro release of Thio-TEPA from polyurethane-coated polyurethane foam substrate in phosphate buffer; assay type: physicochemical; conditions: core loading 0.9 wt %, 37 C
Protocol: A reticulated TDI/polyether based foam (SIF grade obtained from Foamex) was used as a scaffold or substrate. The foam substrate was 4″×4″ (10.2 cm×10.2 cm) square sample with a thickness of ¼″ or 0.635 cm with a volume of 65.5 cm^3 and weighed 1.2 g, giving a density of 0.0183 gms/cc. 2.42 grams of hydrophilic polyurethane prepolymer (Urepol 1002A obtained from Envirochem) and 64 milligrams of Thio-TEPA was diluted in 6 ml of DMF. The foam was dipped into the solution mixture of polyurethane prepolymer, Thio-TEPA and DMF. The Thio-TEPA containing solution mixture of polyurethane prepolymer and DMF was then distributed and spread over the foam substrate. During the spreading and distribution, it was ensured that solution mixture contacted the foam substrate from all sides and coated both the surface and internal pores of the foam substrate.
The foam substrate with coated solution mixture was held overnight below 8° C. The coating was cured by the reaction of the ambient moisture with the available reactive isocyanate in the prepolymer. After the overnight curing, the foam substrate with coated solution mixture was vacuum-dried to remove residual solvents to leave a coating of polyurethane containing Thio-TEPA.
The final weight of the foam substrate and the drug loaded coating was 3.24 gms. Density of the coated foam substrate was 0.0495 gms/cc. The drug loading was 0.009 gms per 1 gm of coated foam substrate, i.e. 0.9 wt %. The drug entrapment efficiency was 50% calculated from a final measures drug loading of 0.9 wt % and a theoretical drug loading of 1.8 wt %. The weight of the drug in the final coated foam substrate was 0.029 gms or 29 mgs with the drug density on the coated foam substrate being 0.44 mgs per cc.
The coated foam substrate was placed in phosphate buffer at 37 C, and a pH of 7.4 and the Thio-TEPA in vitro release was measured.

[2] = Immobilization of collagenase in composite foam polymer system; conditions: composite foam (hydrophobic polyurethane scaffold with hydrophilic polyurethane coating)
[3] = In vitro release of Ciprofloxacin from cast hydrophilic polyurethane film in phosphate buffer; assay type: physicochemical; conditions: core loading 6.0 wt %, 37 C
Protocol: A cast film of polyurethane containing Ciprofloxacin was made by reacting hydrophilic polyurethane prepolymer (Urepol 1002A obtained from Envirochem) with distilled water. The reacting mixture was spread in a thin film over a glass petri dish. The film was cured overnight and dried to leave a thin film of polyurethane containing Ciprofloxacin. The resultant drug carrying film was further vacuum-dried. The drug loading was measured to be 0.06 gms per 1 gm of coated film, i.e. 6.0 wt %.
The drug carrying film was placed in phosphate buffer at 37 C and a pH of 7.4 and the Ciprofloxacin in vitro release was measured.

Molecule: S=P(N1CC1)(N1CC1)N1CC1 [Thio-Tepa, Thio-TEPA]
Cumulative Release, % at Day 1 ([1]; pH 7.4, Day 1): 11.9%
Cumulative Release, % at Day 3 ([1]; pH 7.4, Day 3): 43.7%
Cumulative Release, % at Day 6 ([1]; pH 7.4, Day 6): 66.6%

Molecule: collagenase
enzymatic activity after immobilization within the polymer system [2]: retain enzymatic activity

Cumulative Release, % at Day 1 ([3]; pH 7.4, Day 1): 15.7%
Cumulative Release, % at Day 3 ([3]; pH 7.4, Day 3): 16.8%
Cumulative Release, % at Day 4 ([3]; pH 7.4, Day 4): 29.28%
Molecule: O=C(O)c1cn(C2CC2)c2cc(N3CCNCC3)c(F)cc2c1=O [Ciprofloxacin]
